Results: patent publication US9517994B2, “Antibacterial agents: phloroglucinol derivatives” (Rutgers, the State University of New Jersey, priority 2012, dated 2016)
≈ marks a conversion by molar mass, not a printed value.

Legend:
[1] = biological target: M tuberculosis RNA polymerase core enzyme + M. tuberculosis σA (Mycobacterium tuberculosis, UniProt P9WGY7+P9WGY9); test: Fluorescence-detected assay of inhibition of Mycobacterium tuberculosis RNA polymerase; type: biochemical; conditions: read-out: IC50 Mt RNAP
M tuberculosis RNA polymerase core enzyme + M. tuberculosis σA, sequence (P9WGI1 whole entry, the tested form may be a part): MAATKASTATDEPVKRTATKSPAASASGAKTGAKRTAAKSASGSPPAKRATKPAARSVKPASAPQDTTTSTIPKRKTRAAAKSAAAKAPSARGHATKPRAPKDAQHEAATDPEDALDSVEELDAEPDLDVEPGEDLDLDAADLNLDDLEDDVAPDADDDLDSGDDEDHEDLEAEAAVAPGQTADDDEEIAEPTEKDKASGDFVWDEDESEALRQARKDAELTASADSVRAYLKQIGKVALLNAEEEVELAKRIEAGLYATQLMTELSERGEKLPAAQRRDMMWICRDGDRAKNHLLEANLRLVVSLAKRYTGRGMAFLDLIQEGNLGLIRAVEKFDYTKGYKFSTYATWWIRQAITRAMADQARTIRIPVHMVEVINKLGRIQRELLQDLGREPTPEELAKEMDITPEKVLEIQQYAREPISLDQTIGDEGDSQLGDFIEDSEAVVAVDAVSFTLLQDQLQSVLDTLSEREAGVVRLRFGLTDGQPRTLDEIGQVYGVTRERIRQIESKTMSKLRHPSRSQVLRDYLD
M tuberculosis RNA polymerase core enzyme + M. tuberculosis σA, sequence (P9WGY5 whole entry, further chain, the tested form may be a part): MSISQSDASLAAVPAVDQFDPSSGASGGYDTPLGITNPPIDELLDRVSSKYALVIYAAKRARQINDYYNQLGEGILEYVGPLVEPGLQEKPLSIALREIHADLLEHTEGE
M tuberculosis RNA polymerase core enzyme + M. tuberculosis σA, sequence (P9WGZ1 whole entry, further chain, the tested form may be a part): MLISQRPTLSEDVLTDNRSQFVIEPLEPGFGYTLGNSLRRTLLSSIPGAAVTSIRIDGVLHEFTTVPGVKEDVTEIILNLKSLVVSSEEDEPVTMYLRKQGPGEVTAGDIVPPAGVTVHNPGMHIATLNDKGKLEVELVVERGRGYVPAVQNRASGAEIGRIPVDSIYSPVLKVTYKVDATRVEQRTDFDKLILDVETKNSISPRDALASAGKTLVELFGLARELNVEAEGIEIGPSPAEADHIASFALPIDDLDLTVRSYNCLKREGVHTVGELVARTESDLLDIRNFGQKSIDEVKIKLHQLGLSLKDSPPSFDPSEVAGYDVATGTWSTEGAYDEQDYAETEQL
M tuberculosis RNA polymerase core enzyme + M. tuberculosis σA, sequence (P9WGY7 whole entry, the tested form may be a part): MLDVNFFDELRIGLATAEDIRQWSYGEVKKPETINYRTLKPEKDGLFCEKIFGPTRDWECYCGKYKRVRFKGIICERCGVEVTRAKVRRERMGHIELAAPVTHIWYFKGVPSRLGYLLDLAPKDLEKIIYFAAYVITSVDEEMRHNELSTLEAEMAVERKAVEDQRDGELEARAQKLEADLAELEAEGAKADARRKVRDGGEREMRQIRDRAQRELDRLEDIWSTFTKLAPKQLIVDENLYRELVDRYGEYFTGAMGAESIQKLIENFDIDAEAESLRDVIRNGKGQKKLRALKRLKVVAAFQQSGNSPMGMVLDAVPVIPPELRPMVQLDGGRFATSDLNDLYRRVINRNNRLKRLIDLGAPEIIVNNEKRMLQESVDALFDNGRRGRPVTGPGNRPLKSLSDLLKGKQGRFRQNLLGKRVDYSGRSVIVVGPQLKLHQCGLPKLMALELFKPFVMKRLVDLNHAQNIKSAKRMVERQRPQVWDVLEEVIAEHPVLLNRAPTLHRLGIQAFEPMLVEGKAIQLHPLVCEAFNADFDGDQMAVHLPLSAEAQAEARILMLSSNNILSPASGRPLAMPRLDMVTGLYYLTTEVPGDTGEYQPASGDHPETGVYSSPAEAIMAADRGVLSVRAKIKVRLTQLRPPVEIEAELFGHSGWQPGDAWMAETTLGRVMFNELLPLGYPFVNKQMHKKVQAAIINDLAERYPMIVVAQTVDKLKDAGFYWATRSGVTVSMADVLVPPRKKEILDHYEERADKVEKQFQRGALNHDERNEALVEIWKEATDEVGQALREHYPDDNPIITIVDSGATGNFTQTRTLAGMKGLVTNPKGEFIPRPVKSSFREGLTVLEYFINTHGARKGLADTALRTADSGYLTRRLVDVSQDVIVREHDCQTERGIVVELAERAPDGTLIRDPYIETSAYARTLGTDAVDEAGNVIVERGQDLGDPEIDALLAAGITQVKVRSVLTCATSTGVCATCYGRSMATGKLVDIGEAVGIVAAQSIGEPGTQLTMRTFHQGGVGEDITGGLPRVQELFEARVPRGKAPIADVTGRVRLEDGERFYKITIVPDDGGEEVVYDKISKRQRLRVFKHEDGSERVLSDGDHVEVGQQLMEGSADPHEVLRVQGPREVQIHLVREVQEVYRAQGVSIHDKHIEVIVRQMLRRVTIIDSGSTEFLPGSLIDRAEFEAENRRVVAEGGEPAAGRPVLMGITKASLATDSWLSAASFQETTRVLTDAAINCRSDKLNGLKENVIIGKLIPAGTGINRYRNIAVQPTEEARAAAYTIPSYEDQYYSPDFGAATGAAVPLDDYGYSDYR
M tuberculosis RNA polymerase core enzyme + M. tuberculosis σA, sequence (P9WGY9 whole entry, the tested form may be a part): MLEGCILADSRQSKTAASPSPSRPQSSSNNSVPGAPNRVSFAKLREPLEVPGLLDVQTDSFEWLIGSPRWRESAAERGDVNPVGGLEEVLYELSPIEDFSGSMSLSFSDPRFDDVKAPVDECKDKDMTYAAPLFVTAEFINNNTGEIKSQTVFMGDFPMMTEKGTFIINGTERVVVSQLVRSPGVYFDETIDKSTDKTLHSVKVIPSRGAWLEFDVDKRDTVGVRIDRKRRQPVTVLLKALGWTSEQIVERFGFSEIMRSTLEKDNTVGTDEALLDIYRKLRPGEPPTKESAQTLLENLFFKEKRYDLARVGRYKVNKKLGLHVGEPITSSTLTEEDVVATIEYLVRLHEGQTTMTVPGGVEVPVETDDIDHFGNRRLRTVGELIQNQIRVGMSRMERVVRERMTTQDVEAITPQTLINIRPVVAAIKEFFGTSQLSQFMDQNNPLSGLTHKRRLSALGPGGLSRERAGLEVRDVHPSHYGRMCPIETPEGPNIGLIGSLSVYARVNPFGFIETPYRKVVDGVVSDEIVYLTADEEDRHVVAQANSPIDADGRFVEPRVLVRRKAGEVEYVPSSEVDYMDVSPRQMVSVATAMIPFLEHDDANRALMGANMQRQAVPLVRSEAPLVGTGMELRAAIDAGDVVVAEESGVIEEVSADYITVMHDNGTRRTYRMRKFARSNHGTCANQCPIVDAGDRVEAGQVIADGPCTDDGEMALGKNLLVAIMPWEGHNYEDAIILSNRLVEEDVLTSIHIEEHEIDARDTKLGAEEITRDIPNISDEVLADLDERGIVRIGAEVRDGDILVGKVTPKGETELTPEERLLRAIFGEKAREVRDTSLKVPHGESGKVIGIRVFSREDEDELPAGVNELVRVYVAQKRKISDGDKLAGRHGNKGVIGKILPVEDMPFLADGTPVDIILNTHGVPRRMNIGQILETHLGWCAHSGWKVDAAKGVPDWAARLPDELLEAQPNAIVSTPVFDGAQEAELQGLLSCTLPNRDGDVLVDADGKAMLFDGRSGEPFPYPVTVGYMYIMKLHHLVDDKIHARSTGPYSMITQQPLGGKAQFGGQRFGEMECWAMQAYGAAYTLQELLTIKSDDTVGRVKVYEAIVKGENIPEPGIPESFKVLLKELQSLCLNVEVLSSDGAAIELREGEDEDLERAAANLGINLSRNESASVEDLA
Method: (§1) Fluorescence-detected RNA polymerase assays with E. coli RNA polymerase were performed by a modification of the procedure of Kuhlman et al., 2004 (Kuhlman, P., Duff, H. & Galant, A. (2004) Anal. Biochem. 324, 183-190). Reaction mixtures contained (20 μl): 0-100 nM test compound, 75 nM E. coli RNA polymerase σ^70 holoenzyme, 20 nM 384 by DNA fragment containing the bacteriophage T4 N25 promoter, 100 μM ATP, 100 μM GTP, 100 μM UTP, 100 μM CTP, 50 mM Tris-HCl, pH 8.0, 100 mM KCl, 10 mM MgCl2, 1 mM DTT, 10 μg/ml bovine serum albumin, and 5.5% glycerol. Reaction components other than DNA and NTPs were pre-incubated for 10 mm at 37° C. Reactions were carried out by addition of DNA and incubation for 5 min at 37° C., followed by addition of NTPs and incubation for 60 min at 37° C. DNA was removed by addition of 1 μl 5 mM CaCl2 and 2 U DNaseI (Ambion, Inc.), followed by incubation for 90 min at 37° C. RNA was quantified by addition of 100 μl RiboGreen RNA Quantitation Reagent (Invitrogen, Inc.; 1:500 dilution in Tris-HCl, pH 8.0, 1 mM EDTA), followed by incubation for 10 min at 25° C., followed by measurement of fluorescence intensity [excitation wavelength=485 nm and emission wavelength=535 nm; QuantaMaster QMI spectrofluorometer (PTI, Inc.)]. IC50 was defined as the concentration of inhibitor resulting in 50% inhibition of RNA polymerase activity.
(§2) Fluorescence-detected RNA polymerase assays with M tuberculosis RNA polymerase were performed as in Example 17.1, using reaction mixtures containing (20 μl): 0-100 nM test compound, 75 nM M tuberculosis RNA polymerase core enzyme, 300 nM M. tuberculosis σ^A, 20 nM 384 by DNA fragment containing the bacteriophage T4 N25 promoter, 100 μM ATP, 100 μM GTP, 100 μM UTP, 100 μM CTP, 40 mM Tris-HCl, pH 8.0, 80 mM NaCl, 5 mM MgCl2, 2.5 mM DTT, and 12.7% glycerol. IC50 was defined as the concentration of inhibitor resulting in 50% inhibition of RNA polymerase activity.

[2] = biological target: S. aureus RNA polymerase core enzyme + S. aureus σA (Staphylococcus aureus, UniProt P47768+Q2G0N5); test: Fluorescence-detected assay of inhibition of Staphylococcus aureus RNA polymerase; type: biochemical; conditions: read-out: IC50 Sa RNAP
Method: as §1
as §2, with “S. aureus” for “M tuberculosis”, “S. aureus” for “M. tuberculosis”

[3] = tested on: Staphylococcus aureus ATCC 12600; test: MIC, spiral gradient endpoint assay; conditions: ATCC12600, 16 h, read-out: MIC S. aureus 12600
[4] = tested on: Enterococcus faecalis ATCC 19433; test: MIC, spiral gradient endpoint assay; conditions: ATCC19433, 16 h, read-out: MIC E. faecalis 19433
[5] = biological target: E. coli RNA polymerase σ70 holoenzyme (Escherichia coli, UniProt P0A8T7+P0A8V2); test: Fluorescence-detected assay of inhibition of Escherichia coli RNA polymerase; type: biochemical; conditions: RiboGreen fluorescence, read-out: IC50 Ec RNAP
Method: as §1

[6] = tested on: Escherichia coli D21f2tolC; test: MIC, spiral gradient endpoint assay; conditions: 16 h, read-out: MIC E. coli D21f2tolC
[7] = tested on: Moraxella catarrhalis ATCC 25238; test: MIC, spiral gradient endpoint assay (GC II agar, 5% CO2); conditions: ATCC25238, read-out: MIC M. catarrhalis 25238
[8] = tested on: Bacillus anthracis Vollum 1B; test: microbe, parasite or virus in culture; type: cell-based; conditions: VOLLUM1B, read-out: MIC B. anthracis Vollum-1b
[9] = tested on: Francisella tularensis SCHU4; test: microbe, parasite or virus in culture; type: cell-based; conditions: SCHU4, read-out: MIC F. tularensis SCHU4
[10] = tested on: Haemophilus influenzae ATCC 33391; test: MIC, spiral gradient endpoint assay (GC II agar, 5% CO2); conditions: ATCC33391, read-out: MIC H. influenzae 33391
[11] = tested on: Burkholderia mallei CHN7; test: microbe, parasite or virus in culture; type: cell-based; conditions: CHN7, read-out: MIC B. mallei CHN7
[12] = tested on: Mycobacterium tuberculosis H37Rv; test: MIC, microplate Alamar Blue assay; conditions: read-out: MIC M. tuberculosis H37Rv
[13] = tested on: H. influenzae 49247; test: MIC, spiral gradient endpoint assay (GC II agar, 5% CO2); conditions: for MIC: Haemophilus influenzae, 49247, read-out: MIC H. influenzae 49247

Structure (SMILES) | IC50 [1] [µM] | IC50 [2] [µM] | MIC [3] [µg/mL] | MIC [4] [µg/mL] | IC50 [5] [nM] | MIC [6] [µg/mL] | MIC [7] [µg/mL] | MIC [8] [µg/mL] | MIC [9] [µg/mL] | MIC [10] [µg/mL] | MIC [11] [µg/mL] | MIC [12] [µg/mL] | MIC [13] [µg/mL] | MIC50 ([13]; Haemophilus influenzae, 49247, read-out: MIC50 H. influenzae 49247) [µg/mL]
Cc1ccccc1CCC(=O)c1c(O)cc(O)cc1O [OMTK18, 3-(2-methylphenyl)propanoyl-phloroglucinol] | 3.9 | 7.9 | > 40 | > 40 | 2700 | 11 (≈ 40.4 µM) | – | – | – | – | – | – | – | –
O=C(CCc1ccc(F)cc1)c1c(O)cc(O)cc1O [OMTK21, 3-(4-fluorophenyl)propanoyl-phloroglucinol] | 4.4 | 7.2 | > 40 | > 40 | 2400 | 10 (≈ 36.2 µM) | – | – | – | – | – | – | – | –
O=C(CCc1ccc(Cl)cc1)c1c(O)cc(O)cc1O [0MTK13, 3-(4-chlorophenyl)propanoyl-phloroglucinol] | 2.3 | 4.3 | 4 (≈ 13.7 µM) | 11 (≈ 37.6 µM) | 1100 | 2.7 (≈ 9.22 µM) | 32 (≈ 109 µM) | 6.25 (≈ 21.4 µM) | 3.12 (≈ 10.7 µM) | 32 (≈ 109 µM) | 12.5 (≈ 42.7 µM) | 25 (≈ 85.4 µM) | 32 (≈ 109 µM) | –
O=C(CCc1ccc(C(F)(F)F)cc1)c1c(O)cc(O)cc1O [OMTK23, 3-(4-trifluoromethylphenyl)propanoyl-phloroglucinol] | 2.3 | 4.8 | 12 (≈ 36.8 µM) | 25 (≈ 76.6 µM) | 1600 | 5 (≈ 15.3 µM) | – | – | – | – | – | – | – | –
O=C(CCc1ccccc1Cl)c1c(O)cc(O)cc1O [0MTK11, 3-(2-chlorophenyl)propanoyl-phloroglucinol] | 2.5 | 11 | 16 (≈ 54.7 µM) | > 40 | 3500 | 8 (≈ 27.3 µM) | > 40 | 6.25 (≈ 21.4 µM) | 3.12 (≈ 10.7 µM) | > 40 | 50 (≈ 171 µM) | > 50 | – | 35 (≈ 120 µM)
O=C(CCc1ccc(Br)cc1)c1c(O)cc(O)cc1O [OMTK22, 3-(4-bromophenyl)propanoyl-phloroglucinol] | 1.7 | 3.7 | 10 (≈ 29.7 µM) | 22 (≈ 65.2 µM) | 1300 | 5 (≈ 14.8 µM) | – | – | – | – | – | – | – | –
O=C(CCc1ccc(C(F)(F)F)cc1C(F)(F)F)c1c(O)cc(O)cc1O [0MTK32, 3-(2,4-bis(trifluoromethyl)phenyl)propanoyl-phloroglucinol] | 3.3 | 3.7 | 3.6 (≈ 9.13 µM) | 6.6 (≈ 16.7 µM) | 2000 | 2.2 (≈ 5.58 µM) | – | – | – | – | – | – | – | –
O=C(CCc1ccccc1C(F)(F)F)c1c(O)cc(O)cc1O [0MTK31, 3-(2-(trifluoromethyl)phenyl)propanoyl-phloroglucinol] | 3.5 | 4.8 | 14 (≈ 42.9 µM) | 22 (≈ 67.4 µM) | 1900 | 6 (≈ 18.4 µM) | – | – | – | – | – | – | – | –
COc1ccccc1CCC(=O)c1c(O)cc(O)cc1O [OMTK14, 3-(2-methoxyphenyl)propanoyl-phloroglucinol] | 9.9 | 7.2 | > 40 | > 40 | 2700 | 12 (≈ 41.6 µM) | > 40 | 25 (≈ 86.7 µM) | 12.5 (≈ 43.4 µM) | > 40 | > 50 | > 50 | > 40 | –
CC(C)c1ccc(CCC(=O)c2c(O)cc(O)cc2O)cc1 [0MTK27, 3-(4-isopropylphenyl)propanoyl-phloroglucinol] | 4.9 | 5.4 | 9.8 (≈ 32.6 µM) | 16 (≈ 53.3 µM) | 2300 | 4.3 (≈ 14.3 µM) | – | – | – | – | – | – | – | –
COc1cccc(CCC(=O)c2c(O)cc(O)cc2O)c1 [OMTK15, 3-(3-methoxyphenyl)propanoyl-phloroglucinol] | 3 | 7.2 | > 40 | > 40 | 3000 | 12 (≈ 41.6 µM) | > 40 | 25 (≈ 86.7 µM) | 12.5 (≈ 43.4 µM) | > 40 | > 50 | 50 (≈ 173 µM) | > 40 | –
Cc1cc(F)ccc1CCC(=O)c1c(O)cc(O)cc1O [0MTK30, 3-(4-fluoro-2-methylphenyl)propanoyl-phloroglucinol] | 3.7 | 4.1 | 16 (≈ 55.1 µM) | 26 (≈ 89.6 µM) | 1800 | 7 (≈ 24.1 µM) | – | – | – | – | – | – | – | –
CCc1ccc(CCC(=O)c2c(O)cc(O)cc2O)cc1 [0MTK26, 3-(4-ethylphenyl)propanoyl-phloroglucinol] | 3.6 | 5.4 | 12.5 (≈ 43.7 µM) | 36 (≈ 126 µM) | 1500 | 6.2 (≈ 21.7 µM) | – | – | – | – | – | – | – | –
CC(C)(C)c1ccc(CCC(=O)c2c(O)cc(O)cc2O)cc1 [0MTK28, 3-((4-tert-butyl)phenyl)propanoyl-phloroglucinol] | 4.6 | 6.4 | 6.9 (≈ 21.9 µM) | 11 (≈ 35 µM) | 2700 | 3 (≈ 9.54 µM) | – | – | – | – | – | – | – | –
O=C(CCc1cccc(Cl)c1)c1c(O)cc(O)cc1O [0MTK12, 3-(3-chlorophenyl)propanoyl-phloroglucinol] | 4.8 | 9 | 16 (≈ 54.7 µM) | 32 (≈ 109 µM) | 2600 | 6 (≈ 20.5 µM) | > 40 | 12.5 (≈ 42.7 µM) | 3.12 (≈ 10.7 µM) | > 40 | 50 (≈ 171 µM) | 50 (≈ 171 µM) | > 40 | –
